From patent US10501449B2 (priority 2018, dated 2019)
Where two headings read alike, the source gives them in different places.

How the values were obtained:
[1] = target: hERG channels (Homo sapiens (Human), UniProt Q12809); assay: hERG Manual Patch Clamp Assay; assay type: cell-based; conditions: human, HEK 293 cells stably expressing hERG channels, pH 7.4, 1 uM, read-out: hERG EP % Inh @ 1 uM
Protocol: hERG electrophysiology assay: The experimental compounds were assessed for hERG activity on HEK 293 cells stably expressing hERG channels using patch clamp technique. Coverslips plated with hERG expressing cells were placed in the experimental chamber and were perfused with a solution composed of (in mM): 140 NaCl, 4 KCl, 1.8 CaCl2, 1 MgCl2, 10 Glucose, 10 HEPES (pH 7.4, NaOH) at room temperature. Borosilicate patch pipettes had tip resistances of 2-4 Mohms when filled with an internal solution containing: 130 KCl, 1 MgCl2, 1 CaCl2, 10 EGTA, 10 HEPES, 5 ATP-K2 (pH 7.2, KOH). The cells were clamped at −80 mV in whole cell configuration using an Axopatch 200B (Axon instruments, Union City, Calif.) patch clamp amplifier controlled by pClamp (Axon instruments) software. Upon formation of a gigaseal, the following voltage protocol was repeatedly (0.05 Hz) applied to record tail currents: depolarization step from −80 mV to +20 mV for 2 seconds followed by a hyperpolarization step to −65 mV (3 seconds) to elicit tail currents. Compounds were applied after stabilization of tail current. First, tail currents were recorded in presence of extracellular solution alone (control) and subsequently, in extracellular solution containing increasing compound concentrations. Each compound concentration was applied for 2-5 minutes. The percentage inhibition at each concentration was calculated as reduction in peak tail current with respect to the peak tail current recorded in the presence of control solution. Data analysis was performed in a custom made template. The percent inhibitions at different concentrations were plotted to obtain a concentration response curve, which was subsequently fitted with a four parameter equation to calculate hERG IC50 value.

[2] = target: T1, hROMK (human Kir1.1) (Homo sapiens (Human), UniProt P48048); assay: cell-based; assay type: cell-based; conditions: whole-cell manual patch clamp, CHO T-Rex hROMK stable cell line, voltage step to -120 mV, Ba2+-subtracted hROMK current; read-out: ROMK EP IC50
T1 sequence (P48048 whole entry): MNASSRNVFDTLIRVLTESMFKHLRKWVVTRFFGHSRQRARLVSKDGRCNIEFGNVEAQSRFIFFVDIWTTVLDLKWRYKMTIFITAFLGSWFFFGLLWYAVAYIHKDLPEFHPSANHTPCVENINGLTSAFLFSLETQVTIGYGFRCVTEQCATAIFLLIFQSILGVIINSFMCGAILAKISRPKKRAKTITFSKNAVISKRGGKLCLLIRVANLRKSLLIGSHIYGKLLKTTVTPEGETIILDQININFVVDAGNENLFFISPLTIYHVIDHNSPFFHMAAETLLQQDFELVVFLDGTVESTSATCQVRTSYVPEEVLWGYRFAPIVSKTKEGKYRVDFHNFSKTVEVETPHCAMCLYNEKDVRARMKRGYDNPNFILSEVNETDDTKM
Protocol: ROMK Manual Patch Clamp Assay
Cell culture conditions: Cells were maintained in conditions similar to those for Thallium flux assay. hROMK channel expression was induced by adding 0.6 μg/ml of Doxycycline 16-24 hrs prior to the experiments. On the day of experiment, the cells were dissociated using Versene, resuspended in growth media and plated onto coverslips 15 minutes prior to use.
Electrophysiology: The coverslip plated with cells was placed in the experiment chamber perfused with bath solution composed of (in mM): 135 NaCl, 5 KCl, 2 CaCl2, 1 MgCl2, 10 HEPES, 5 Glucose (pH 7.4). Patch pipettes with resistance between 2-5 Megaohms, when filled with a solution containing (in mM): 135 KCl, 1 EGTA, 1 MgCl2, 10 HEPES, 2 Na2ATP (pH 7.3), were used to form gigaseals. The cells were voltage clamped at −75 mV in whole-cell configuration using an Axopatch 200b or Multiclamp 700b (Molecular Devices) amplifier controlled by pClamp Software (Molecular Devices). The current was recorded by applying a voltage step to −120 mV every 10 seconds. […] At the end of the experiment, the cells were perfused with bath solution containing 2 mM Ba^2+ to isolate the contribution of hROMK current.
Data analysis: Raw current values (5 traces each for control, different compound concentration and Ba^2+ treatment groups) were exported from Clampfit into Microsoft Excel where the current remaining after application of Ba^2+ was subtracted from raw current to obtain hROMK specific current.

[3] = target: T1, hROMK (human Kir1.1); assay: cell-based; conditions: CHO T-Rex hROMK stable cell line; thallium flux; 10-point concentration response curve; read-out: Human ROMK Th Flux IC50

Chain of hERG channels (Q12809 whole entry): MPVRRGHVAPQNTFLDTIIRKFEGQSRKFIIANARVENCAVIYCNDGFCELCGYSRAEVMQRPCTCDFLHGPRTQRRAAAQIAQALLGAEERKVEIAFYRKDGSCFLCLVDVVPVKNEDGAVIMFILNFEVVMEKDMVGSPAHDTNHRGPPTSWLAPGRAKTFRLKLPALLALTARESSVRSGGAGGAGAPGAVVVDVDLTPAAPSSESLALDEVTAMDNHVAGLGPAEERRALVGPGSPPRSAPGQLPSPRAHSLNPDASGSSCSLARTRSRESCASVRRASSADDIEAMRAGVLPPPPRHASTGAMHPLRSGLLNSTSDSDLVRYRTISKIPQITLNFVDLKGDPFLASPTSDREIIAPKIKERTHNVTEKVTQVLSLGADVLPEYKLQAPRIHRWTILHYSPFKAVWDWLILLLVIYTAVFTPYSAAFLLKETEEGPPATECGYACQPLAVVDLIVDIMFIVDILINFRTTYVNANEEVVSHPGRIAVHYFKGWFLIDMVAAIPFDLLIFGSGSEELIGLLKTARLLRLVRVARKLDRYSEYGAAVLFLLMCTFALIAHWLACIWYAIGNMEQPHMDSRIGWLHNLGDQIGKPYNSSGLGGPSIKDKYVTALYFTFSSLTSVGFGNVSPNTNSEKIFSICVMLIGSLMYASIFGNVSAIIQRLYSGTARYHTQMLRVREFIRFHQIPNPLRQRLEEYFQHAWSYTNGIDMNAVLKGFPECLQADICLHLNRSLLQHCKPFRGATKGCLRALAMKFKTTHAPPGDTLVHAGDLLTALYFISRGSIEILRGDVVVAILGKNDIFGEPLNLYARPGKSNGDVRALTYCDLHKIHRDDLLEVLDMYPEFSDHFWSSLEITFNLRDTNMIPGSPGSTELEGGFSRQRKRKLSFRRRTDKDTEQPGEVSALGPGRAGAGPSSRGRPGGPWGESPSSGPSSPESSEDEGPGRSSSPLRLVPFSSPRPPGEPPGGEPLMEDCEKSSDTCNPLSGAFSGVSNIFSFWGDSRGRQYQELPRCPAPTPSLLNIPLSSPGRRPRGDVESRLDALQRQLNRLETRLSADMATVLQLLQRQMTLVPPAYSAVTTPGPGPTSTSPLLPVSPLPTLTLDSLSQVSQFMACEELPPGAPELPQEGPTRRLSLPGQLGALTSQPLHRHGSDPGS

Row | Structure (SMILES) | inhibition at 1 µM [1] | IC50 [2] | IC50 [3]
1 | Cc1cc(-c2nnc(CN3CC(c4ccc5c(c4C)COC5=O)NC(C)(C)C3)o2)ncc1C#N (single isomer, unassigned) [Example 267-I, 6-(5-((3,3-dimethyl-5-(4-methyl-1-oxo-1,3-dihydroisobenzofuran-5-yl)piperazin-1-yl)methyl)-1,3,4-oxadiazol-2-yl)-4-methylnicotinonitrile] | 9.9% | 0.017 µM | 0.016 µM
2 | COc1cc(-n2ncc(CN3CCN[C@H](c4ccc5c(c4C)COC5=O)C3)n2)ncc1C#N [Example 168-I, (R)-4-methoxy-6-(4-((3-(4-methyl-1-oxo-1,3-dihydroisobenzofuran-5-yl)piperazin-1-yl)methyl)-2H-1,2,3-triazol-2-yl)nicotinonitrile] | 22% | 0.029 µM | 0.02 µM
3 | COc1nc(-n2cc(CN3C[C@@H](c4ccc5c(c4C)COC5=O)N[C@@H](C)C3)cn2)ncc1C#N [Example 99-I, 4-methoxy-2-(4-(((3S,5R)-3-methyl-5-(4-methyl-1-oxo-1,3-dihydroisobenzofur-an-5-yl)piperazin-1-yl)methyl)-1H-pyrazol-1-yl)pyrimidine-5-carbonitrile] | 9.6% | 0.029 µM | 0.033 µM
4 | Cc1cc(-n2cc(CN3CC(c4ccc5c(c4C)COC5=O)NCC3C)cn2)ncc1C#N (single isomer, unassigned) [Example 244-II, 4-methyl-6-(4-((2-methyl-5-(4-methyl-1-oxo-1,3-dihydroisobenzofuran-5-yl)piperazin-1-yl)methyl)-1H-pyrazol-1-yl)nicotinonitrile] | – | 0.022 µM | 0.017 µM
5 | COc1cc(-n2ncc(CN3CCN[C@H](c4ccc5c(c4C)COC5=O)C3)n2)nc(C)c1C#N [Example 188-I, (R)-4-methoxy-2-methyl-6-(4-((3-(4-methyl-1-oxo-1,3-dihydroisobenzofuran-5-yl)piperazin-1-yl)methyl)-2H-1,2,3-triazol-2-yl)nicotinonitrile] | 18% | 0.018 µM | 0.037 µM
6 | CCc1nn(-c2ncc(CN3CCN[C@H](c4ccc5c(c4C)COC5=O)C3)cn2)cc1C#N [Example 228-I, (R)-3-ethyl-1-(5-((3-(4-methyl-1-oxo-1,3-dihydroisobenzofuran-5-yl)piperazin-1-yl)methyl)pyrimidin-2-yl)-1H-pyrazole-4-carbonitrile] | 16% | 0.02 µM | 0.014 µM
7 | COc1cc(-n2cc(CN3CC[C@@H](O)[C@H](c4ccc5c(c4C)COC5=O)C3)n(C)c2=O)ncc1C#N [Example 171-I, 6-(4-(((3R,4R)-4-hydroxy-3-(4-methyl-1-oxo-1,3-dihydroisobenzofuran-5-yl)piperidin-1-yl)methyl)-3-methyl-2-oxo-2,3-dihydro-1H-imidazol-1-yl)-4-methoxynicotinonitrile] | 16% | 0.026 µM | 0.027 µM
8 | Cc1cc(-n2cc(CN3C[C@@H](c4ccc5c(c4C)COC5=O)N[C@@H](C)C3)cn2)ccn1 [Example 102-I, 4-methyl-5-((2R,6S)-6-methyl-4-((1-(2-methylpyridin-4-yl)-1H-pyrazol-4-yl)methyl)piperazin-2-yl)isobenzofuran-1(3H)-one] | 5.6% | 0.017 µM | 0.048 µM
9 | Cc1cc(-c2cc(CN3C[C@@H](c4ccc5c(c4C)COC5=O)N[C@@H](C)C3)no2)ncc1C#N [Example 210-I, 4-methyl-6-(3-(((3S,5R)-3-methyl-5-(4-methyl-1-oxo-1,3-dihydroisobenzofuran-5-yl)piperazin-1-yl)methyl)isoxazol-5-yl)nicotinonitrile] | 5.2% | 0.02 µM | 0.041 µM
10 | Cc1nn(-c2ncc(CN3CCN[C@H](c4ccc5c(c4C)COC5=O)C3)cn2)cc1C#N [Example 221-I, (R)-3-methyl-1-(5-((3-(4-methyl-1-oxo-1,3-dihydroisobenzofuran-5-yl)piperazin-1-yl)methyl)pyrimidin-2-yl)-1H-pyraozle-4-carbonitrile] | 5.4% | 0.013 µM | 0.022 µM
11 | Cc1cc(-n2cc(CN3CCN[C@H](c4ccc5c(c4C)COC5=O)C3)nn2)ncc1C#N [Example 23-I, (R)-4-methyl-6-(4-((3-(4-methyl-1-oxo-1,3-dihydroisobenzofuran-5-yl)piperazin-1-yl)methyl)-1H-1,2,3-triazol-1-yl)nicotinonitrile] | 12% | 0.0049 µM | 0.03 µM
12 | Cc1nccc(-n2cc(CN3C[C@@H](c4ccc5c(c4C)COC5=O)N[C@@H](C)C3)n(C)c2=O)n1 [Example 173-I, 3-methyl-4-(((3S,5R)-3-methyl-5-(4-methyl-1-oxo-1,3-dihdyroisobenzofuran-5-yl)piperazin-1-yl)methyl)-1-(2-methylpyrimidin-4-yl)-1,3-dihydro-2H-imidazol-2-one] | 4% | 0.021 µM | 0.055 µM
13 | COc1cc(-n2ncc(CN3CC(c4ccc5c(c4C)COC5=O)NC(C)(C)C3)n2)ncc1C#N (single isomer, unassigned) [Example 190-I, 6-(4-((3,3-dimethyl-5-(4-methyl-1-oxo-1,3-dihydroisobenzofuran-5-yl)piperazin-1-yl)methyl)-2H-1,2,3-triazol-2-yl)-4-methoxynicotinonitrile] | 9.1% | 0.013 µM | 0.017 µM
14 | Cc1c([C@@H]2CN(Cc3ccc(-n4cnc(C#N)c4)nc3)CCN2)ccc2c1COC2=O [Example 65-I, (R)-1-(5-((3-(4-methyl-1-oxo-1,3-dihydroiso-benzofuran-5-yl)piper-azin-1-yl)methyl)pyri-din-2-yl)-1H-imidazole-4-carbonitrile] | 21% | 0.0098 µM | 0.014 µM
15 | COc1cc(-n2cnc(CN3CCN[C@H](c4ccc5c(c4C)COC5=O)C3)c2)ncc1C#N [Example 14-I, (R)-4-methoxy-6-(4-((3-(4-methyl-1-oxo-1,3-dihydroisobenzofuran-5-yl)piperazin-1-yl)methyl)-1H-imidazol-1-yl)nicotinonitrile] | 1.7% | 0.051 µM | 0.036 µM
16 | Cc1c([C@@H]2CN(Cc3ccc(-c4ccc5oc(=O)n(C)c5c4)nc3)CCO2)ccc2c1COC2=O [Example 3-I, (R)-3-methyl-5-(5-((2-(4-methyl-1-oxo-1,3-dihydroisobenzofuran-5-yl)morpholino)methyl)pyridin-2-yl)benzo[d]oxazol-2(3H)-one] | 26% | 0.044 µM | 0.21 µM
17 | Cc1cc(-c2nc(CN3C[C@@H](c4ccc5c(c4C)COC5=O)N[C@@H](C)C3)co2)ncc1C#N [Example 130-I] | 8.4% | 0.02 µM | 0.052 µM
18 | Cc1cc(-n2cc(CN3C[C@@H](c4ccc5c(c4C)COC5=O)N[C@@H](C)C3)nn2)ncc1C#N [Example 106-I, 4-methyl-6-(4-(((3S,5R)-3-methyl-5-(4-methyl-1-oxo-1,3-dihydroisobenzofur-an-5-yl)piperazin-1-yl)methyl)-1H-1,2,3-triazol-1-yl)nicotinonitrile] | 0.98% | 0.01 µM | –
19 | COc1cc(-n2cnc(CN3C[C@@H](c4ccc5c(c4C)COC5=O)N[C@@H](C)C3)c2)ncc1C#N [Example 97-I, 4-methoxy-6-(4-(((3S,5R)-3-methyl-5-(4-methyl-1-oxo-1,3-dihydroisobenzofur-an-5-yl)piperazin-1-yl)methyl)-1H-imidazol-1-yl)nicotinonitrile] | – | 0.043 µM | 0.028 µM
20 | Cc1c([C@@H]2CN(Cc3cnn(-c4ccc5oc(=O)n(C)c5c4)n3)C[C@H](CO)N2)ccc2c1COC2=O [Example 109-I, 5-(4-(((3R,5R)-3-(hydroxymethyl)-5-(4-methyl-1-oxo-1,3-dihydroisobenzofur-an-5-yl)piperazin-1-yl)methyl)-2H-1,2,3-triazol-2-yl)-3-methylbenzo[d]oxa-zol-2(3H)-one] | 3.6% | 0.054 µM | –
21 | Cc1c([C@@H]2CN(Cc3cn(-c4ccc5oc(=O)n(C)c5c4)nn3)CCN2)ccc2c1COC2=O [Example 61-I, (R)-3-methyl-5-(4-((3-(4-methyl-1-oxo-1,3-dihydroisobenzofuran-5-yl)piperazin-1-yl)methyl)-1H-1,2,3-triazol-1-yl)benzo[d]oxazol-2 (3H)-one] | – | 0.04 µM | –
22 | Cc1cc(-c2cc(CN3CC(c4ccc5c(c4C)COC5=O)NC(C)(C)C3)on2)ncc1C#N (single isomer, unassigned) [Example 268-I, 6-(5-((3,3-dimethyl-5-(4-methyl-1-oxo-1,3-dihydroisobenzofuran-5-yl)piperazin-1-yl)methyl)isoxazol-3-yl)-4-methylnicotinonitrile] | 9% | – | 0.02 µM
23 | Cc1cc(N2CC(CN3CCN[C@H](c4ccc5c(c4C)COC5=O)C3)CC2=O)ncc1C#N (single isomer, unassigned) [Example 158-I] | 20% | – | 0.036 µM
24 | COc1cc(-n2cc(CCN3C[C@@H](c4ccc5c(c4C)COC5=O)N[C@@H](C)C3)cn2)ncc1C#N [Example 192-I, 4-methoxy-6-(4-(2-((3S,5R)-3-methyl-5-(4-methyl-1-oxo-1,3-dihydroisobenzofuran-5-yl)piperazin-1-yl)ethyl)-1H-pyrazol-1-yl)nicotinonitrile] | 46% | – | 0.016 µM
25 | Cc1cc(-n2nnc(CN3C[C@@H](c4ccc5c(c4C)COC5=O)N[C@@H](C)C3)n2)ccc1C#N [Example 265-I, 2-methyl-4-(5-(((3S,5R)-3-methyl-5-(4-methyl-1-oxo-1,3-dihydroisobenzofuran-5-yl)piperazin-1-yl)methyl)-2H-tetrazol-2-yl)benzonitrile] | 20% | – | 0.022 µM
